According to patent publication US20230263822A1, “MODULATION OF FACTOR 11 EXPRESSION” (Ionis Pharmaceuticals, Inc., priority 2008, published 2023):
Strand notation (5' to 3'): a small letter for the sugar, then the base; units joined by * are phosphorothioate-linked, units joined directly phosphodiester-linked; [ ] holds rarer units or linkages, { } end groups; capitals alone tell only the bases. e = 2'-O-(2-methoxyethyl) (MOE); [5mC] = 5-methylcytosine; d = 2'-deoxy (DNA)

How the values were obtained:
blood coagulation = experiment: PT and aPTT assay in cynomolgus monkeys (Example 46); assay type: in vivo; conditions: platelet poor plasma, relative to PBS group
Experimental: (§1) Groups, each consisting of two male and two female monkeys, were injected subcutaneously with 25 mg/kg of ISIS 416850, ISIS 449709, ISIS 445522, ISIS 449710, ISIS 449707, ISIS 449711, ISIS 449708, 416858, and ISIS 445531. Antisense oligonucleotide was administered to the monkeys at 25 mg/kg three times per week for week 1 and 25 mg/kg twice per week for weeks 2 to 8. A control group, consisting of two male and two female monkeys was injected subcutaneously with PBS according to the same dosing regimen. Body weights were taken 14 days and 7 days before the start of treatment and were then measured weekly throughout the treatment period. Blood samples were collected 14 days and 5 days before the start of treatment and subsequently several times during the dosing regimen for PT and aPTT measurements, and measurement of various hematologic factors. On day 55, the monkeys were euthanized by exsanguination while under deep anesthesia, and organs harvested for further analysis.
PT and aPTT were measured using platelet poor plasma (PPP) from […] treated with ISIS oligonucleotides. PT and aPTT values are provided in Tables 148 and 149 and are reported as International Normalized Ratio (INR) values. INR values for PT and aPTT were determined by dividing the PT or aPTT value for each experimental group by the PT or aPTT for the PBS treated group. This ratio was then raised to the power of the International Sensitivity Index (ISI) of the tissue factor used. […] Therefore, antisense reduction of Factor 11 with these ISIS oligonucleotides is useful for inhibiting the formation of a thrombus or clot in response to an abnormal vessel wall, but not in response to tissue injury.

[1] = Hematology assays in cynomolgus monkeys (Example 46); assay type: in vivo
Experimental: as §1

ISIS 445531: 5-8-5 or 6-8-6 MOE microwalk gapmer (Table 44) (antisense eG*eG*e[5mC]*eA*eT*dT*dG*dG*dT*dG*d[5mC]*dA*d[5mC]*eA*eG*eT*eT*eT)
PT ratio (INR) (blood coagulation; Day 10): 1.00 | aPTT ratio relative to PBS group (blood coagulation; Day 10): 0.95 | PT ratio (INR) (blood coagulation; Day 17): 1.06 | aPTT ratio relative to PBS group (blood coagulation; Day 17): 1.05 | PT ratio (INR) (blood coagulation; Day 24): 1.02 | aPTT ratio relative to PBS group (blood coagulation; Day 24): 1.00 | PT ratio (INR) (blood coagulation; Day 31): 1.04 | aPTT ratio relative to PBS group (blood coagulation; Day 31): 1.07 | PT ratio (INR) (blood coagulation; Day 38): 1.03 | aPTT ratio relative to PBS group (blood coagulation; Day 38): 1.06 | PT ratio (INR) (blood coagulation; Day 45): 1.01 | aPTT ratio relative to PBS group (blood coagulation; Day 45): 1.13 | PT ratio (INR) (blood coagulation; Day 52): 1.04 | aPTT ratio relative to PBS group (blood coagulation; Day 52): 1.15 | PT ratio (INR) (blood coagulation; Day 55): 1.06 | aPTT ratio relative to PBS group (blood coagulation; Day 55): 1.19 | PT ratio (INR) (blood coagulation; Day −5): 1.00 | aPTT ratio relative to PBS group (blood coagulation; Day −5): 0.89 | PT ratio (INR) (blood coagulation; Day −14): 1.06 | aPTT ratio relative to PBS group (blood coagulation; Day −14): 1.00 | HCT ([1]; Day 17): 43% | MCH ([1]; Day 17): 22.1 pg | MCHC ([1]; Day 17): 29.5 g/dL | MCV ([1]; Day 17): 75 fL | RBC count ([1]; Day 17): 5.8e+06 µL⁻¹ | WBC count ([1]; Day 17): 17000 µL⁻¹ | hemoglobin content ([1]; Day 17): 12.7 g/dL | monocytes ([1]; Day 17): 3.4% | neutrophils ([1]; Day 17): 85% | platelet count ([1]; Day 17): 380 ×100/μL | HCT ([1]; Day 31): 41% | MCH ([1]; Day 31): 22.0 pg | MCHC ([1]; Day 31): 29.7 g/dL | MCV ([1]; Day 31): 75 fL | RBC count ([1]; Day 31): 5.6e+06 µL⁻¹ | WBC count ([1]; Day 31): 17000 µL⁻¹ | hemoglobin content ([1]; Day 31): 12.3 g/dL | monocytes ([1]; Day 31): 4.1% | neutrophils ([1]; Day 31): 116% | platelet count ([1]; Day 31): 376 ×100/μL | HCT ([1]; Day 45): 41% | MCH ([1]; Day 45): 21.6 pg | MCHC ([1]; Day 45): 29.0 g/dL | MCV ([1]; Day 45): 75 fL | RBC count ([1]; Day 45): 5.5e+06 µL⁻¹ | WBC count ([1]; Day 45): 20000 µL⁻¹ | hemoglobin content ([1]; Day 45): 12.0 g/dL | monocytes ([1]; Day 45): 4.4% | neutrophils ([1]; Day 45): 93% | platelet count ([1]; Day 45): 345 ×100/μL | HCT ([1]; Day 55): 41% | MCH ([1]; Day 55): 21.7 pg | MCHC ([1]; Day 55): 29.6 g/dL | MCV ([1]; Day 55): 74 fL | RBC count ([1]; Day 55): 5.6e+06 µL⁻¹ | WBC count ([1]; Day 55): 15000 µL⁻¹ | hemoglobin content ([1]; Day 55): 12.1 g/dL | monocytes ([1]; Day 55): 4.1% | neutrophils ([1]; Day 55): 91% | platelet count ([1]; Day 55): 319 ×100/μL | HCT ([1]; Day-5): 42% | MCH ([1]; Day-5): 22.2 pg | MCHC ([1]; Day-5): 30.0 g/dL | MCV ([1]; Day-5): 74 fL | RBC count ([1]; Day-5): 5.7e+06 µL⁻¹ | WBC count ([1]; Day-5): 15000 µL⁻¹ | hemoglobin content ([1]; Day-5): 12.6 g/dL | monocytes ([1]; Day-5): 2.2% | neutrophils ([1]; Day-5): 80% | platelet count ([1]; Day-5): 416 ×100/μL | HCT ([1]; Day-14): 41% | MCH ([1]; Day-14): 22.2 pg | MCHC ([1]; Day-14): 30.9 g/dL | MCV ([1]; Day-14): 72 fL | RBC count ([1]; Day-14): 5.7e+06 µL⁻¹ | WBC count ([1]; Day-14): 20000 µL⁻¹ | hemoglobin content ([1]; Day-14): 12.6 g/dL | monocytes ([1]; Day-14): 1.3% | neutrophils ([1]; Day-14): 60% | platelet count ([1]; Day-14): 379 ×100/μL

ISIS 449707: 3-8-3, 4-8-4, 2-10-2, 3-10-3 or 4-10-4 MOE microwalk gapmer (Table 46) (antisense e[5mC]*eA*e[5mC]*eA*dG*dT*dT*dT*d[5mC]*dT*dG*dG*e[5mC]*eA*eG*eG)
PT ratio (INR) (blood coagulation; Day 10): 0.95 | aPTT ratio relative to PBS group (blood coagulation; Day 10): 0.92 | PT ratio (INR) (blood coagulation; Day 17): 0.97 | aPTT ratio relative to PBS group (blood coagulation; Day 17): 0.94 | PT ratio (INR) (blood coagulation; Day 24): 0.95 | aPTT ratio relative to PBS group (blood coagulation; Day 24): 0.93 | PT ratio (INR) (blood coagulation; Day 31): 0.96 | aPTT ratio relative to PBS group (blood coagulation; Day 31): 0.95 | PT ratio (INR) (blood coagulation; Day 38): 1.00 | aPTT ratio relative to PBS group (blood coagulation; Day 38): 0.99 | PT ratio (INR) (blood coagulation; Day 45): 0.96 | aPTT ratio relative to PBS group (blood coagulation; Day 45): 1.00 | PT ratio (INR) (blood coagulation; Day 52): 0.96 | aPTT ratio relative to PBS group (blood coagulation; Day 52): 0.99 | PT ratio (INR) (blood coagulation; Day 55): 1.00 | aPTT ratio relative to PBS group (blood coagulation; Day 55): 1.04 | PT ratio (INR) (blood coagulation; Day −5): 0.94 | aPTT ratio relative to PBS group (blood coagulation; Day −5): 0.87 | PT ratio (INR) (blood coagulation; Day −14): 1.01 | aPTT ratio relative to PBS group (blood coagulation; Day −14): 0.90 | HCT ([1]; Day 17): 42% | MCH ([1]; Day 17): 22.1 pg | MCHC ([1]; Day 17): 30.0 g/dL | MCV ([1]; Day 17): 74 fL | RBC count ([1]; Day 17): 5.7e+06 µL⁻¹ | WBC count ([1]; Day 17): 12000 µL⁻¹ | hemoglobin content ([1]; Day 17): 12.7 g/dL | monocytes ([1]; Day 17): 3.2% | neutrophils ([1]; Day 17): 80% | platelet count ([1]; Day 17): 408 ×100/μL | HCT ([1]; Day 31): 43% | MCH ([1]; Day 31): 22.1 pg | MCHC ([1]; Day 31): 29.8 g/dL | MCV ([1]; Day 31): 74 fL | RBC count ([1]; Day 31): 5.7e+06 µL⁻¹ | WBC count ([1]; Day 31): 11000 µL⁻¹ | hemoglobin content ([1]; Day 31): 12.7 g/dL | monocytes ([1]; Day 31): 4.2% | neutrophils ([1]; Day 31): 89% | platelet count ([1]; Day 31): 408 ×100/μL | HCT ([1]; Day 45): 43% | MCH ([1]; Day 45): 22.6 pg | MCHC ([1]; Day 45): 29.8 g/dL | MCV ([1]; Day 45): 73 fL | RBC count ([1]; Day 45): 5.9e+06 µL⁻¹ | WBC count ([1]; Day 45): 12000 µL⁻¹ | hemoglobin content ([1]; Day 45): 12.9 g/dL | monocytes ([1]; Day 45): 4.0% | neutrophils ([1]; Day 45): 89% | platelet count ([1]; Day 45): 424 ×100/μL | HCT ([1]; Day 55): 42% | MCH ([1]; Day 55): 21.9 pg | MCHC ([1]; Day 55): 30.0 g/dL | MCV ([1]; Day 55): 73 fL | RBC count ([1]; Day 55): 5.8e+06 µL⁻¹ | WBC count ([1]; Day 55): 8000 µL⁻¹ | hemoglobin content ([1]; Day 55): 12.6 g/dL | monocytes ([1]; Day 55): 4.8% | neutrophils ([1]; Day 55): 98% | platelet count ([1]; Day 55): 399 ×100/μL | HCT ([1]; Day-5): 43% | MCH ([1]; Day-5): 22.2 pg | MCHC ([1]; Day-5): 29.8 g/dL | MCV ([1]; Day-5): 75 fL | RBC count ([1]; Day-5): 5.8e+06 µL⁻¹ | WBC count ([1]; Day-5): 11000 µL⁻¹ | hemoglobin content ([1]; Day-5): 12.8 g/dL | monocytes ([1]; Day-5): 2.3% | neutrophils ([1]; Day-5): 106% | platelet count ([1]; Day-5): 464 ×100/μL | HCT ([1]; Day-14): 40% | MCH ([1]; Day-14): 22.2 pg | MCHC ([1]; Day-14): 31.4 g/dL | MCV ([1]; Day-14): 71 fL | RBC count ([1]; Day-14): 5.7e+06 µL⁻¹ | WBC count ([1]; Day-14): 13000 µL⁻¹ | hemoglobin content ([1]; Day-14): 12.7 g/dL | monocytes ([1]; Day-14): 1.3% | neutrophils ([1]; Day-14): 85% | platelet count ([1]; Day-14): 383 ×100/μL
